The record followed here is US20230011869A1 (Hoffmann-La Roche Inc., priority 2018, published 2023).

For this test, the system named is Acinetobacter baumannii ATCC17978. The test can be described thus: Antimicrobial susceptibility testing: 90% growth inhibitory concentration (IC90) determination, Iso-Sensitest broth. The format is cell-based. The essentials: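 A. baumannii ATCC17978 grown in Iso-Sensitest broth across 10 compound concentrations at 35±2 °C.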
Setting [1] is: 90% growth inhibitory concentration, Acinetobacter baumannii ATCC17978, Iso-Sensitest broth, OD 600 nm over 16 h, read-out: ATCC17978 IC90.
[2] abbreviates: Acinetobacter baumannii, ATCC17978, 16 h, read-out: ATCC17978 IC90, 90% growth inhibitory concentration, Acinetobacter baumannii ATCC17978, Iso-Sensitest broth, OD 600 nm over 16 h.

Where a name gives a salt, the structure may show the parent alone. Read-outs that look alike come from different tables or passages of the source.

As to `Cc1cc(Nc2nccn3c(-c4ccc(OCC#N)c(F)c4F)cnc23)ccc1C(=O)N1CCN(C(=O)C2(F)CCNCC2)CC1` [Example 481, 2-[2,3-difluoro-4-[8-[4-[4-(4-fluoropiperidine-4-carbonyl)piperazine-1-carbonyl]-3-methylanilino]imidazo[1,2-a]pyrazin-3-yl]phenoxy]acetonitrile; for-mic acid], the IC90 under setting [1] was determined as 150 nM. For the compound `Cc1cc(Nc2nccn3c(-c4ccc(OC(F)F)cc4)cnc23)ccc1C(=O)N1CCN(C(=O)N[C@H](C)CN)CC1` [Example 482, N-[(2R)-1-aminopropan-2-yl]-4-[4-[[3-[4-(difluoromethoxy)phenyl]imi-dazo[1,2-a]pyrazin-8-yl]amino]-2-methylbenzoyl]piperazine-1-carboxamide; hydrochlroide], the IC90 under setting [2] turned out to be 170 nM. Same read-out and setting: next, `COc1ccc(-c2cnc3c(Nc4ccc(C(=O)N5CCN(C(=O)[C@@H]6CCNC6)CC5)c(C)c4)nccn23)cc1F` [Example 483, [4-[[3-(3-fluoro-4-methoxyphenyl)imidazo[1,2-a]pyrazin-8-yl]amino]-2-methylphenyl]-[4-[(3R)-pyrrolidine-3-carbonyl]piperazin-1-yl]methanone; hydrochloride]: 180 nM. With `COc1ccc(-c2cnc3c(Nc4ccc(C(=O)N5CCN(C(=O)N6CCO[C@@H](CN)C6)CC5)c(C)c4)nccn23)c(Cl)c1F` [Example 484, [4-[(2S)-2-(aminomethyl)morpholine-4-carbonyl]piperazin-1-yl]-[4-[[3-(2-chloro-3-fluoro-4-methoxyphenyl)imidazo[1,2-a]pyrazin-8-yl]amino]-2-methylphenyl]methanone; for-mic acid], under setting [1], the IC90 amounted to 180 nM.

For `COc1ccc(-c2cnc3c(Nc4ccc(C(=O)N5CCN(C(=O)C6CCNCC6)CC5)c(C)c4)nccn23)c(F)c1F` [Example 485, [4-[[3-(2,3-difluoro-4-methoxyphenyl)imidazo[1,2-a]pyrazin-8-yl]amino]-2-methylphenyl]-[4-(piperidine-4-carbonyl)piperazin-1-yl]methanone; hydrochloride], under setting [1], the IC90 came to 190 nM.

On to `Cc1cc(Nc2nccn3c(-c4ccc(OC(F)F)cc4)cnc23)ccc1C(=O)N1CCN(C(=O)[C@@H]2CCNC2)CC1` [Example 486, [4-[[3-[4-(difluoromethoxy)phenyl]imi-dazo[1,2-a]pyrazin-8-yl]amino]-2-methylphenyl]-[4-[(3R)-pyrrolidine-3-carbonyl]piperazin-1-yl]methanone; hydrochloride], for which the IC90 under setting [2] was 190 nM. For the compound `Cc1cc(Nc2nccn3c(-c4ccc(OC(F)F)cc4)cnc23)ccc1C(=O)N1CCN(C(=O)C2(F)CCNCC2)CC1` [Example 487, [4-[[3-[4-(difluoromethoxy)phenyl]imi-dazo[1,2-a]pyrazin-8-yl]amino]-2-methylphenyl]-[4-(4-fluoropiperidine-4-carbonyl)piperazin-1-yl]methanone; hydrochloride], the IC90 (read-out: ATCC17978 IC90, 90% growth inhibitory concentration, Acinetobacter baumannii ATCC17978, Iso-Sensitest broth, OD 600 nm over 16 h, hydrochloride) was 220 nM.

For the compound `Cc1cc(Nc2nccn3c(-c4ccc(OC(F)F)cc4)cnc23)ccc1C(=O)N1CCN(C(=O)C2C3CCC2CNC3)CC1` (centres unmarked) [Example 488, [4-(3-azabicyclo[3.2.1]octane-8-carbonyl)piperazin-1-yl]-[4-[[3-[4-(difluoromethoxy)phenyl]imi-dazo[1,2-a]pyrazin-8-yl]amino]-2-methylphenyl]methanone; hy-drochloride], the IC90 under setting [2] turned out to be 240 nM. Consider `Cc1cc(Nc2nccn3c(-c4ccc(OC(F)F)cc4)cnc23)ccc1C(=O)N1CCN(C(=O)C2(O)CCNCC2)CC1` [Example 490, [4-[[3-[4-(difluoromethoxy)phenyl]imi-dazo[1,2-a]pyrazin-8-yl]amino]-2-methylphenyl]-[4-(4-hydroxypiperidine-4-carbonyl)piperazin-1-yl]methanone; hydrochloride], for which the IC90 under setting [2] is 280 nM. Regarding `Cc1cc(Nc2nccn3c(-c4ccc(OC(F)F)cc4)cnc23)ccc1C(=O)N1CCN(C(=O)N[C@@H](C)CN)CC1` [Example 491, N-[(2S)-1-aminopropan-2-yl]-4-[4-[[3-[4-(difluoromethoxy)phenyl]imi-dazo[1,2-a]pyrazin-8-yl]amino]-2-methylbenzoyl]piperazine-1-carboxamide], the IC90 under setting [2] was found to be 300 nM.

Regarding `Cc1cc(Nc2nccn3c(-c4ccc(OCC#N)c(F)c4F)cnc23)ccc1C(=O)N1CCC(C(=O)N2CCNC[C@H]2CO)CC1` [Example 492, 2-[2,3-difluoro-4-[8-[4-[4-[(2S)-2-(hydroxymethyl)piperazine-1-carbonyl]piperidine-1-carbonyl]-3-methylanilino]imidazo[1,2-a]pyrazin-3-yl]phenoxy]acetonitrile; for-mic acid], under setting [1], the IC90 is 310 nM. `Cc1cc(Nc2nccn3c(-c4ccc(OC(F)F)cc4)cnc23)ccc1C(=O)N1CCN(C(=O)NCC2(O)CNC2)CC1` [Example 493, 4-[4-[[3-[4-(difluoromethoxy)phenyl]imi-dazo[1,2-a]pyrazin-8-yl]amino]-2-methylbenzoyl]-N-[(3-hydroxyazetidin-3-yl)methyl]piperazine-1-carboxamide; formic acid]: the IC90 under setting [2] is 310 nM.

On to `CCc1cc(Nc2nccn3c(-c4ccc(OC)c(F)c4F)cnc23)ccc1C(=O)N1CCN(C(=O)C2CCNCC2)CC1` [Example 494, [4-[[3-(2,3-difluoro-4-methoxyphenyl)imidazo[1,2-a]pyrazin-8-yl]amino]-2-ethylphenyl]-[4-(piperidine-4-carbonyl)piperazin-1-yl]methanone; hydrochloride], for which the IC90 under setting [2] was found to be 320 nM. The same measure, in the same setting: next, `Cc1cc(Nc2nccn3c(-c4ccc(OC(F)F)cc4)cnc23)ccc1C(=O)N1CCN(C(=O)[C@H]2CCNC2)CC1` [Example 495, [4-[[3-[4-(difluoromethoxy)phenyl]imi-dazo[1,2-a]pyrazin-8-yl]amino]-2-methylphenyl]-[4-[(3S)-pyrrolidine-3-carbonyl]piperazin-1-yl]methanone; hydrochloride]: 320 nM; `Cc1cc(Nc2nccn3c(-c4ccc(OC(F)F)cc4)cnc23)ccc1C(=O)N1CCN(C(=O)N2CCO[C@H](CN)C2)CC1` [Example 496, [4-[(2R)-2-(aminomethyl)morpholine-4-carbonyl]piperazin-1-yl]-[4-[[3-[4-(difluoromethoxy)phenyl]imi-dazo[1,2-a]pyrazin-8-yl]amino]-2-methylphenyl]methanone; for-mic acid]: 330 nM.

On to `Cc1cc(Nc2nccn3c(-c4ccc(OCC#N)c(F)c4F)cnc23)ccc1C(=O)N1CCC(C(=O)N2CCNC[C@@H]2CO)CC1` [Example 497, 2-[2,3-difluoro-4-[8-[4-[4-[(2R)-2-(hydroxymethyl)piperazine-1-carbonyl]piperidine-1-carbonyl]-3-methylanilino]imidazo[1,2-a]pyrazin-3-yl]phenoxy]acetonitrile; for-mic acid], for which the IC90 under setting [1] worked out at 330 nM. On to `Cc1cc(Nc2nccn3c(-c4ccc(OCC#N)c(F)c4F)cnc23)ccc1C(=O)N1CCC(C(=O)OC[C@H]2CNCCN2)CC1` [Example 499, formic acid; [(2R)-piperazin-2-yl]methyl 1-[4-[[3-[4-(cyanomethoxy)-2,3-difluorophenyl]imidazo[1,2-a]pyrazin-8-yl]amino]-2-methylbenzoyl]piperidine-4-carboxylate], for which the IC90 under setting [2] was 360 nM.
